We go through four compounds from ChEMBL document CHEMBL1201862, “PubChem BioAssay data set” (2004).

Holding throughout (assay type): functional
The target of experiment [1] is T1, Hexokinase-1 (Homo sapiens, UniProt P19367).
T1 sequence (P19367 whole entry): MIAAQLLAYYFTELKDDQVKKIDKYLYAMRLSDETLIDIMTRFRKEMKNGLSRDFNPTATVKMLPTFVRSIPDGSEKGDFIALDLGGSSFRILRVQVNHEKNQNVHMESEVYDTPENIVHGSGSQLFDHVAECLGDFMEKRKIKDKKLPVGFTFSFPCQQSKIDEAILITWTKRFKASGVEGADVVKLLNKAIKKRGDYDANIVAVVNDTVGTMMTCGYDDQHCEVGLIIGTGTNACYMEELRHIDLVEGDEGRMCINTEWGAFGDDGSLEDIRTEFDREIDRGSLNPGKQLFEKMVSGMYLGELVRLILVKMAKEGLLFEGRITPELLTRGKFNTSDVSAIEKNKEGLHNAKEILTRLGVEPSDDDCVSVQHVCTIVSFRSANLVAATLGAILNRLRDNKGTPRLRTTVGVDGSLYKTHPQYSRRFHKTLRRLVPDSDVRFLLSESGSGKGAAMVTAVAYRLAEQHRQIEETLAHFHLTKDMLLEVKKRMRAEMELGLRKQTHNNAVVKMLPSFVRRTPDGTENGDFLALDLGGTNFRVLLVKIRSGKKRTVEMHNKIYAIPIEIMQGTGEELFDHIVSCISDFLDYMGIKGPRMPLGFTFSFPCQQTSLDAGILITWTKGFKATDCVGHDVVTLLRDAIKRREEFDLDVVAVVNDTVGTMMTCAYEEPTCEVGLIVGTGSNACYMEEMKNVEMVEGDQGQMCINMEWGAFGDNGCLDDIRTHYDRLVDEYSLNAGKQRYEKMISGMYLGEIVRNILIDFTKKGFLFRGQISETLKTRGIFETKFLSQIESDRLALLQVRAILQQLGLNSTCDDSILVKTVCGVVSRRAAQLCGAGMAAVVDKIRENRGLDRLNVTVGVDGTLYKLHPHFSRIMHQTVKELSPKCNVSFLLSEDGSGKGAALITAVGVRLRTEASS
Description: SAR analysis of small molecule inhibitors of hexokinase domain containing I (HKDC1) in the hexokinase 1 selectivity assay. [Related pubchem assays (depositor defined):AID493160, AID493190].

Experiment [2] deals with T2, Hexokinase HKDC1 (Homo sapiens, UniProt Q2TB90).
T2 sequence (Q2TB90 whole entry): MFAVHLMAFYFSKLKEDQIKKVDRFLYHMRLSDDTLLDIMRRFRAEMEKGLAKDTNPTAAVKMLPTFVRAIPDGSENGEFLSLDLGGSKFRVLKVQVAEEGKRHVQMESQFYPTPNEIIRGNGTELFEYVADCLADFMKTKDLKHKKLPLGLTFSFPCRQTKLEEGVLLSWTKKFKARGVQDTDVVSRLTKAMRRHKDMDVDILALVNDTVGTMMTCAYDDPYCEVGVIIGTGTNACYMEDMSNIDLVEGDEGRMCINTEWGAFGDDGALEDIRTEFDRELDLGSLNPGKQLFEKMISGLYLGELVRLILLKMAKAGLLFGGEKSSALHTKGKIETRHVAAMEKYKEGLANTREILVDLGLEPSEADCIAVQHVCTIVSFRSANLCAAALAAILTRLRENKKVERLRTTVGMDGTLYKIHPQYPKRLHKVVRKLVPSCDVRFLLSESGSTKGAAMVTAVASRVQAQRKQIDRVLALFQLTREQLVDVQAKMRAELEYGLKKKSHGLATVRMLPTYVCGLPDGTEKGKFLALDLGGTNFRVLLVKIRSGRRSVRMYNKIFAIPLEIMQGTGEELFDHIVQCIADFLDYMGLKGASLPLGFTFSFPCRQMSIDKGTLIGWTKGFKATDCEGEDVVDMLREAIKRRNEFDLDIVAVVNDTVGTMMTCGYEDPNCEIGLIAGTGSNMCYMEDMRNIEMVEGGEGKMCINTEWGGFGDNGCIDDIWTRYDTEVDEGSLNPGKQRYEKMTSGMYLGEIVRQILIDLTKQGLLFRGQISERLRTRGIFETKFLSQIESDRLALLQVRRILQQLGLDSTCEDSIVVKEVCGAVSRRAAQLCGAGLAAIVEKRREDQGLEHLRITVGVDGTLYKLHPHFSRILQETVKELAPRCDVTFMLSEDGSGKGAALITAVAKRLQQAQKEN
Description: SAR analysis of small molecule inhibitors of hexokinase domain containing I (HKDC1). [Related pubchem assays (depositor defined):AID493160, AID493190].

Experiment [3] can be described thus: BHK-21 cell cytotoxicity, cytotoxicity control for flavivirus guanylyltransferase probe project, secondary screen (AID 624078).
For experiment [4], the target named is T1, Hexokinase-1. The experiment can be described thus: HK1 enzyme inhibition by HKDC1 hits, SAR follow-up, selectivity assay for HKDC1 inhibitor project, biochemical, set 2, resazurin fluorescence coupled readout (AID 588356).
The target of experiment [5] is T2, Hexokinase HKDC1. Description: HKDC1 hexokinase inhibitors, SAR follow-up, biochemical, set 2 (AID 588355).
The target in another experiment is T3, Caspase-3 (Homo sapiens, UniProt P42574).
T3 sequence (P42574 whole entry): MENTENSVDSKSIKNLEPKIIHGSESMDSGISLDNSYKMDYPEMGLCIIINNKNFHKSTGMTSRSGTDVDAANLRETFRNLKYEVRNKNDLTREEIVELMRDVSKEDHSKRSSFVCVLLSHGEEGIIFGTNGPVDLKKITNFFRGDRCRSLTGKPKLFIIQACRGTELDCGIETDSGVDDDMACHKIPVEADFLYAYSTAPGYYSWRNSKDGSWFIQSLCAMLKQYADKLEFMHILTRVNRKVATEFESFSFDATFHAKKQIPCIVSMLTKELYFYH
The experiment can be described thus: caspase-3 inhibitors as off-family protease, SAR follow-up, selectivity assay for SENP protease inhibitor project, biochemical, luminescence, set 2 (AID 588599).

For experiment [6], the target named is T4, Sentrin-specific protease 8 (Homo sapiens, UniProt Q96LD8).
T4 sequence (Q96LD8 whole entry): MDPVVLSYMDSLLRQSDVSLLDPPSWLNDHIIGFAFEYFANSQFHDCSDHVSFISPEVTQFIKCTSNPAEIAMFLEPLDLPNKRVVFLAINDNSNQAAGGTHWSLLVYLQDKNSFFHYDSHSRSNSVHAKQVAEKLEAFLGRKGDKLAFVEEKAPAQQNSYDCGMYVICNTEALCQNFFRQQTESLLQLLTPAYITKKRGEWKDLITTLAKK
Description: SENP8 protease inhibitors, SAR follow-up, biochemical, luminescence, set 2 (AID 588601).

Experiment [7] has as its target T5, Sentrin-specific protease 7 (Homo sapiens, UniProt Q9BQF6).
T5 sequence (Q9BQF6 whole entry): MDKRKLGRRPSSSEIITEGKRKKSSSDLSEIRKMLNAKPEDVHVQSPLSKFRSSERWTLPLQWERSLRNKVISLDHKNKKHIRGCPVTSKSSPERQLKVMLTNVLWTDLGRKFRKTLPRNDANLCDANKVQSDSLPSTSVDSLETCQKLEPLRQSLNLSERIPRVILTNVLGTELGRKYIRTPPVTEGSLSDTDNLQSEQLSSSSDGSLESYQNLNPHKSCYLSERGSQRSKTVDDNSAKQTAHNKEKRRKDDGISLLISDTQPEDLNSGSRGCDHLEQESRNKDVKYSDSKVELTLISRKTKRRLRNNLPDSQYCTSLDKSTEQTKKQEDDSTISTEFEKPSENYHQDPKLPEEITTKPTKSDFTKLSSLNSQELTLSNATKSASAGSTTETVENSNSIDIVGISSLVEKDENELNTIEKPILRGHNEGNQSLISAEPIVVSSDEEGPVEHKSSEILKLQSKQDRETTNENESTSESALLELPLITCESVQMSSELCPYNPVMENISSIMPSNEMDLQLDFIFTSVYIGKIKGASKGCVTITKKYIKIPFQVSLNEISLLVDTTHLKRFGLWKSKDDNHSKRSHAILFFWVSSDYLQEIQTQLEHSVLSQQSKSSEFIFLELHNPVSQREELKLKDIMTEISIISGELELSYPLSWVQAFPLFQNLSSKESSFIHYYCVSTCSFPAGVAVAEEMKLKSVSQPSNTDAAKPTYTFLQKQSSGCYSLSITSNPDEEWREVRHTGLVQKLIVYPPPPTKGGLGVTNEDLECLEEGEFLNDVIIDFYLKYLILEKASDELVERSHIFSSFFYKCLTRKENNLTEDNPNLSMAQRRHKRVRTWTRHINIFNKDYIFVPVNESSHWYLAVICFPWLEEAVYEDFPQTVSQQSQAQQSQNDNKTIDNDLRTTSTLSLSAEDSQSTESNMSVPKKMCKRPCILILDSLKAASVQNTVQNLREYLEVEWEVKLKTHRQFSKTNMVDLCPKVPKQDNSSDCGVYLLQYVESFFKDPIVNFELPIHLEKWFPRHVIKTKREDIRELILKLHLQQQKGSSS
The experiment can be described thus: SENP7 protease inhibitors, SAR follow-up, biochemical, luminescence, set 2 (AID 588600).

Experiment [8] has as its target T6, Sentrin-specific protease 6 (Homo sapiens, UniProt Q9GZR1).
T6 sequence (Q9GZR1 whole entry): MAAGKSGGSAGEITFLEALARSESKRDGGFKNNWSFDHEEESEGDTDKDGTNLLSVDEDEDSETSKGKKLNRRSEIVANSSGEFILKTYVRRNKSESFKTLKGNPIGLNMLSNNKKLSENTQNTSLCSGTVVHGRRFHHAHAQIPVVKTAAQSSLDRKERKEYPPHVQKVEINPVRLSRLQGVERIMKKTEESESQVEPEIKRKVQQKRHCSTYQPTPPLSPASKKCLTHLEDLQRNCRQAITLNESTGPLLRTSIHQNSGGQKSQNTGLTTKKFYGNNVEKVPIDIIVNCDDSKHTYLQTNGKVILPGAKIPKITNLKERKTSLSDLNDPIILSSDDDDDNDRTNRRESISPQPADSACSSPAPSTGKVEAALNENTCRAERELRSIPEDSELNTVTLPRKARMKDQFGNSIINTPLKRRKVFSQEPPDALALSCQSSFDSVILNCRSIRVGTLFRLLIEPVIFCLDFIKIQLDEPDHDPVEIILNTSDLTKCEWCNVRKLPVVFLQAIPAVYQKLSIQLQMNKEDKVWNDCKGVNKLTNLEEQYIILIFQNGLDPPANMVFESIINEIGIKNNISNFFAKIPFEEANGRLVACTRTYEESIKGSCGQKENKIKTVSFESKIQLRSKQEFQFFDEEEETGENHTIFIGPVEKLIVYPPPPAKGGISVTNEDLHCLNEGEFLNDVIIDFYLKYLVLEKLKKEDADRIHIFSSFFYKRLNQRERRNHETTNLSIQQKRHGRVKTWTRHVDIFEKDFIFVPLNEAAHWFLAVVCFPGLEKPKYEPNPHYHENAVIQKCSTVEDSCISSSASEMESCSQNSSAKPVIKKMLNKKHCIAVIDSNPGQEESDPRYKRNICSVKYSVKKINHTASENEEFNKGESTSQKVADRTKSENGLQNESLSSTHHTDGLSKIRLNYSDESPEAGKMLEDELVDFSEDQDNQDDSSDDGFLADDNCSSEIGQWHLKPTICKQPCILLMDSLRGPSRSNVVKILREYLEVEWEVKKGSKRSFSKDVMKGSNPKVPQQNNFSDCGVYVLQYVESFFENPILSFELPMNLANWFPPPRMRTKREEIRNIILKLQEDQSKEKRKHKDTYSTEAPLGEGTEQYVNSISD
The experiment can be described thus: SENP6 protease inhibitors, SAR follow-up, biochemical, luminescence, set 2 (AID 588598).

A further experiment relates to NIH3T3. The experiment can be described thus: cytotoxicity in NIH-3T3 fibroblasts, dose response, cytotoxicity control for antifungal drug resistance project, cell-based, Alamar Blue, fluconazole, dry powder (AID 488809). To be noted: Mus musculus. On the technique in general: The colour change of resazurin is a common sign of viable cells or microbes.

The source made the active and inactive calls.

As a reminder, the IC50 is the point on the concentration scale where inhibition reaches its midpoint. As usually defined, the CC50 is the concentration giving 50% cytotoxicity. Take `O=C(O)CSc1cc(NS(=O)(=O)c2ccc(F)cc2)c2ccccc2c1O`: the IC50 at Hexokinase-1 [1] is 40.3 µM (inactive); on Hexokinase HKDC1 [2], 5.02 µM (active). Moreover, in experiment [3], the half-maximal cytotoxic concentration (CC50) was 6.86 µM (active).
Take `CCCCN1C(=O)C(NC(C)=O)c2cc(Cl)ccc21` (stereo not given): the IC50 at Hexokinase-1 [4] and at Hexokinase HKDC1 [5] was > 80 µM (inactive) each time.
Regarding `CCCS(=O)(=O)c1c(S(=O)(=O)CCC)c2c(C)cccn2c1C(=O)N/N=C\c1c[nH]c2ccccc12`, the IC50 (at Caspase-3; in experiment [6]; in experiment [7]; in experiment [8]) was > 99 µM (inactive) in each case.
As usually defined, the AC50 is the midpoint of the concentration-response curve, whichever way the signal moves. `O=S(=O)(c1ccc(Cl)cc1)N1CCN(c2ccnc3cc(Cl)ccc23)CC1`: the AC50 with NIH3T3 was 27.7 µM (active).
